# In US7326710B2, “Aralkyl formyl-alkyl piperazine derivatives and their uses as a cerebral nerve protective agent” (Shanghai Institute of Pharmaceutical Industry, priority 2002, dated 2008):
# Where two headings read alike, the source gives them in different places.
# Tests used:
# [1] = system: anoxia induced by sodium nitrite in mice; assay: Anti-cerebral anoxia in mice, anoxia induced by sodium nitrite; type: in vivo; conditions: sodium nitrite 225 mg/kg ip, compound 20 mg/kg sc; for ILS at 20 mg/kg: Mus musculus, sc
# Protocol: The rates of the prolongation of 9 compounds (IV-2, 10, 23, 32, 34, 36, 39, 40, 41) were more than 50%, which indicated the effect of anti-cerebral anoxia. IV-23 and IV-2 prolonged the survival duration by 100% of the animals, showing remarkably protective action for cerebral anoxia. (Table 3)
# One model was established to test the time needed for mice to die because of anoxia caused by sodium nitrite (225 mg/kg, ip). IV-23 (20 mg/kg, sc) can prolong the time for 100%, indicating significant anti-cerebral anoxic anoxia activity.
# [2] = system: focal cerebral ischemia in rats; assay: Focal cerebral ischemia in rats by occlusion of middle cerebral artery (MCA); type: in vivo; conditions: 20 mg/kg p.o.; for Neurological deficit 24 h: 24 h after operation
# Protocol: The focal ischemia rat model by occlusion of middle cerebral artery (MCA) was used to determine the protective effects of the compounds on focal cerebral ischemia. The infarct size after focal cerebral ischemia and the weight percentage of cerebral hemisphere were calculated to evaluate the compounds' effects on focal cerebral ischemia.
# NMDA receptor = assay: Maximum contraction of isolated guinea pig longitudinal ileum muscle preparations induced by L-Glu; conditions: for antagonism % (restrain rate of contraction of preparations): compound 10^−5M, contraction induced by L-Glu; for excitation: concentration, direct excitation of the preparation; for Glu-like excited action: excite preparations directly and induce contraction
# Excerpt: According to the literature (Luzzi, Br J Pharmacol, 95:1271, 1988), maximum contraction of isolated longitudinal ileomuscle preparations of guinea pig induced by L-Glu, were used to examine the activities of the compounds on the NMDA receptor.
# [3] = mice, read-out: Prolonging the survival duration (%)
# [4] = read-out: Prolonging the survival duration (%), mice
smiles,measurement,setting,value
"O=C(CN1CCN(S(=O)(=O)Cc2ccc(F)cc2F)CC1)c1ccccc1 [IV-22, N^1-phenacyl-N^4-(2,4-difluorobenzylsulfonyl) piperazine]",ILS at 20 mg/kg,[1]; [3],26%
same,Infarct volume,[2],0.10 ± 0.02 g
same,Neurological deficit After operation,[2],9.6 ± 0.9
same,Neurological deficit 24 h,[2],7.4 ± 2.4
"O=C(CN1CCN(S(=O)(=O)Cc2ccc(C(F)(F)F)cc2)CC1)c1ccccc1 [IV-55, N^1-phenacyl-N^4-(4-trifluoromethylbenzylsulfonyl) piperazine]",ILS at 20 mg/kg,[1]; [3],4%
"O=C(CN1CCN(S(=O)(=O)Cc2ccc(Oc3ccccc3)cc2)CC1)c1ccccc1 [IV-53, N^1-phenacyl-N^4-(4-phenoxybenzylsulfonyl) piperazine]",ILS at 20 mg/kg,[1]; [3],15%
"CC(C(=O)c1ccccc1)N1CCN(C(=O)[C@@H](O)c2ccccc2)CC1 (some centres unmarked) [IV-44, N^1-(S-2-hydroxy-1-oxo-2-phenylethyl)-N^4-(1-benzoylethyl) piperazine]",Prolonging the survival duration (%),[1]; mice,3%
"CC(C(=O)c1ccccc1)N1CCN(CC(=O)NCc2ccccc2)CC1 (centres unmarked) [IV-26, N^1-(1-benzoylethyl)-N^4-[2-(benzylamino)-2-oxo-ethyl] piperazine]",ILS at 20 mg/kg,[1]; [4],36%
"O=C(CN1CCN(CC(O)c2ccccc2)CC1)NCc1ccccc1 (centres unmarked) [IV-37, N^1-[2-(benzylamino)-2-oxo-ethyl]-N^4-(2-phenylethyl-2-ol) piperazine]",Prolonging the survival duration (%),[1]; mice,13%
"O=C(c1ccccc1)N1CCN(CC(O)c2ccccc2)CC1 (centres unmarked) [IV-34, N^1-benzoyl-N^4-(2-phenylethyl-2-ol) piperazine]",antagonism % (restrain rate of contraction of preparations),NMDA receptor,25%
"O=C(CN1CCN(CC(=O)c2ccccc2)CC1)c1ccccc1 [IV-2, N^1,N^4-diphenacyl-piperazine]",antagonism % (restrain rate of contraction of preparations),NMDA receptor,25%
"CC(C(=O)c1ccccc1)N1CCN(C(=O)Cc2ccccc2O)CC1 (centres unmarked) [IV-18, N^1-(1-benzoylethyl)-N^4-[(2-hydroxy)phenylacetyl] piperazine]",ILS at 20 mg/kg,[1]; [4],25%
"O=C(CN1CCN(CC(=O)c2ccccc2)CC1)Nc1ccccc1 [IV-24, N^1-phenacyl-N^4-[2-(phenylamino)-2-oxo-ethyl] piperazine]",ILS at 20 mg/kg,[1]; [3],34%
"O=C(CN1CCN(C(=O)C(O)c2ccc(Cl)cc2)CC1)c1ccccc1 (centres unmarked) [IV-19, N^1-phenacyl-N^4-[2-hydroxy-2-(4-chlorophenyl)acetyl] piperazine]",ILS at 20 mg/kg,[1]; [3],18%
"O=C(CN1CCN(S(=O)(=O)Cc2ccccc2CS(=O)(=O)c2ccccc2)CC1)NCc1ccccc1 [IV-62, N^1-[2-(benzylamino)-2-oxo-ethyl]-N^4-[2-(benzenesulfonylmethyl)benzylsulfonyl] piperazine]",ILS at 20 mg/kg,[1]; [3],36%
"O=C(CN1CCN(CC(=O)c2ccc([N+](=O)[O-])cc2)CC1)c1ccccc1 [IV-11, N^1-phenacyl-N^4-(4-nitrophenacyl) piperazine]",excitation,NMDA receptor; unit not given,10^−5
same,Glu-like excited action,NMDA receptor,could excite preparations directly
same,ILS at 20 mg/kg,[1]; [3],2%
"O=C(CN1CCN(CC(=O)NCc2ccccc2)CC1)NCc1ccccc1 [IV-25, N^1,N^4-di[2-(benzylamino)-2-oxo-ethyl] piperazine]",ILS at 20 mg/kg,[1]; [3],30%
"CNC1(c2ccccc2Cl)CCCCC1=O (centres unmarked) [Ket, Ketamine, reference compound]",antagonism (value printed as a concentration in the antagonism % column),"NMDA receptor; positive control, unit not given",5.61 × 10^−7
"CC(C(=O)c1ccccc1)N1CCN(CC(=O)c2ccccc2)CC1 (centres unmarked) [IV-13, N^1-(1-benzoylethyl)-N^4-phenacyl-piperazine]",ILS at 20 mg/kg,[1]; [4],32%
"O=C(CN1CCN(S(=O)(=O)Cc2ccc(-c3ccccc3)cc2)CC1)c1ccccc1 [IV-56, N^1-phenacyl-N^4-(4-phenylbenzylsulfonyl) piperazine]",ILS at 20 mg/kg,[1]; [3],25%
"O=C(CN1CCN(C(=O)c2ccc([N+](=O)[O-])cc2)CC1)c1ccccc1 [IV-3, N^1-(4-nitrobenzoyl)-N^4-phenacyl-piperazine]",antagonism % (restrain rate of contraction of preparations),NMDA receptor,37%
same,ILS at 20 mg/kg,[1]; [3],7%
"O=C(c1ccc([N+](=O)[O-])cc1)N1CCN(CC(O)c2ccccc2)CC1 (centres unmarked) [IV-35, N^1-(4-nitrobenzoyl)-N^4-(2-phenylethyl-2-ol) piperazine]",excitation,NMDA receptor; unit not given,3 × 10^−5
same,Glu-like excited action,NMDA receptor,could excite preparations directly
same,Prolonging the survival duration (%),[1]; mice,42%
"O=C(CN1CCN(S(=O)(=O)Cc2ccccc2CS(=O)(=O)c2ccccc2)CC1)c1ccccc1 [IV-54, N^1-phenacyl-N^4-[2-(benzenesulfonylmethyl)benzylsulfonyl] piperazine]",ILS at 20 mg/kg,[1]; [3],25%
"O=C(CN1CCN(CC(=O)c2ccc(Cl)cc2)CC1)c1ccccc1 [IV-5, N^1-phenacyl-N^4-(4-chlorophenacyl) piperazine]",antagonism % (restrain rate of contraction of preparations),NMDA receptor,30%
same,ILS at 20 mg/kg,[1]; [3],22%
"COc1ccc2cc(C(=O)C(C)N3CCN(CC(=O)NCc4ccccc4)CC3)ccc2c1Cl (centres unmarked) [IV-33, N^1-[1-(5-chloro-6-methoxy-2-naphthoyl)ethyl]-N^4-[2-(benzylamino)-2-oxo-ethyl] piperazine]",Infarct volume,[2],0.12 ± 0.04 g
same,Neurological deficit After operation,[2],9.6 ± 0.6
same,Neurological deficit 24 h,[2],8.4 ± 1.5
"O=C(CN1CCN(CC(=O)c2ccccc2)CC1)NCc1ccc2c(c1)OCO2 [IV-32, N^1-phenacyl-N^4-[2-(3,4-methylenedioxybenzylamino)-2-oxo-ethyl] piperazine]",ILS at 20 mg/kg,[1]; [3],> 50%
"CC(C(=O)c1ccccc1)N1CCN(C(=O)C(O)c2ccc(Cl)cc2)CC1 (centres unmarked) [IV-17, N^1-(1-benzoylethyl)-N^4-[2-hydroxy-2-(4-chlorophenyl)acetyl] piperazine]",ILS at 20 mg/kg,[1]; [4],14%
"COc1ccc2cc(C(=O)C(C)N3CCN(CC(=O)c4ccccc4)CC3)ccc2c1Cl (centres unmarked) [IV-20, N^1-phenacyl-N^4-[1-(5-chloro-6-methoxy-2-naphthoyl)ethyl]piperazine]",Infarct volume,[2],0.14 ± 0.04 g
same,Neurological deficit After operation,[2],9.5 ± 0.6
same,Percentage of infarct volume (%),[2],18.80 ± 5.61 %
same,Neurological deficit 24 h,[2],8.8 ± 1.3
"CC(C(O)c1ccc(O)cc1)N1CCC(Cc2ccccc2)CC1 (centres unmarked) [Ifenprodil, reference compound]",antagonism % (restrain rate of contraction of preparations),NMDA receptor,41%(10^−5)
"N[C@@H](CCC(=O)O)C(=O)O [L-Glu, reference compound]",excitation,NMDA receptor; unit not given,3.89 × 10^−5
"N#Cc1ccccc1-c1ccc(CS(=O)(=O)N2CCN(CC(=O)NCc3ccccc3)CC2)cc1 [IV-61, N^1-[2-(benzylamino)-2-oxo-ethyl]-N^4-[4-(2-cyanophenyl)benzylsulfonyl] piperazine]",ILS at 20 mg/kg,[1]; [3],22%
"COc1ccc2cc(C(=O)C(C)N3CCN(CC(=O)NC(C)c4ccccc4)CC3)ccc2c1Cl (centres unmarked) [IV-49, N^1-[1-(5-chloro-6-methoxy-2-naphthoyl)ethyl]-N^4-[2-(1-phenylethanamino)-2-oxo-ethyl] piperazine]",Prolonging the survival duration (%),[1]; mice,30%
"CC(C(=O)c1ccccc1)N1CCN(C(C)C(=O)c2ccccc2)CC1 (centres unmarked) [IV-10, N^1,N^4-di (1-benzoylethyl) piperazine]",excitation,NMDA receptor; unit not given,10^−5
same,Glu-like excited action,NMDA receptor,could excite preparations directly
same,ILS at 20 mg/kg,[1]; [4],> 50%
"O=C(CN1CCN(C(=O)c2ccccc2)CC1)c1ccccc1 [IV-1, N^1-benzoyl-N^4-phenacyl-piperazine]",excitation,NMDA receptor; unit not given,3 × 10^−6
same,Glu-like excited action,NMDA receptor,could excite preparations directly
same,ILS at 20 mg/kg,[1]; [3],3%
"O=C(CN1CCN(S(=O)(=O)Cc2ccc([N+](=O)[O-])cc2)CC1)NCc1ccccc1 [IV-64, N^1-[2-(benzylamino)-2-oxo-ethyl]-N^4-(4-nitrobenzylsulfonyl) piperazine]",ILS at 20 mg/kg,[1]; [3],20%
"O=C(CN1CCN(CC(=O)c2ccc(Cl)cc2)CC1)c1ccc(Cl)cc1 [IV-6, N^1,N^4-di (4-chlorophenacyl) piperazine]",antagonism % (restrain rate of contraction of preparations),NMDA receptor,25%
same,ILS at 20 mg/kg,[1]; [3],4%
"O=C(CN1CCN(CC(=O)c2ccc3ccccc3c2)CC1)c1ccccc1 [IV-7, N^1-(2-naphthoylmethyl)-N^4-phenacyl-piperazine]",antagonism % (restrain rate of contraction of preparations),NMDA receptor,25%
same,ILS at 20 mg/kg,[1]; [3],21%
"COc1ccc(C(=O)CN2CCN(CC(=O)c3ccccc3)CC2)cc1 [IV-9, N^1-phenacyl-N^4-(4-methoxyphenacyl) piperazine]",excitation,NMDA receptor; unit not given,10^−5
same,Glu-like excited action,NMDA receptor,could excite preparations directly
same,ILS at 20 mg/kg,[1]; [3],30%
"CC(C(=O)c1ccccc1)N1CCN(CC(=O)c2ccccc2)CC1 (centres unmarked) [IV-8, N^1-(1-benzoylethyl)-N^4-phenacyl-piperazine]",antagonism % (restrain rate of contraction of preparations),NMDA receptor,25%
same,Prolonging the survival duration (%),[1]; mice,21%
"N#Cc1cccc(CS(=O)(=O)N2CCN(CC(=O)c3ccccc3)CC2)c1 [IV-48, N^1-phenacyl-N^4-(3-cyanophenylmethylsulfonyl) piperazine]",ILS at 20 mg/kg,[1]; [3],16%
"COc1ccc(C(=O)CN2CCN(C(=O)Cc3ccccc3O)CC2)cc1 [IV-16, N^1-(4-methoxyphenacyl)-N^4-[(2-hydroxy)phenylacetyl] piperazine]",ILS at 20 mg/kg,[1]; [4],30%
"N#Cc1ccccc1-c1ccc(CS(=O)(=O)N2CCN(CC(=O)c3ccccc3)CC2)cc1 [IV-58, N^1-phenacyl-N^4-[4-(2-cyanophenyl)benzylsulfonyl] piperazine]",ILS at 20 mg/kg,[1]; [3],25%
